# Laboratory results reported in patent US20250041235A1, “FUNCTIONALIZED BIOLOGICAL MEMBRANES WITH MODIFYING PROTEIN MOLECULES, AND METHODS OF MAKING AND USES THEREOF” (McMaster University, priority 2021, published 2025).
# What was measured:
# [1] = system: red blood cells; assay: Hemolytic assay (hemoglobin release by UV absorption); type: cell-based; settings: PmB concentrations from 0 MIC to MIC
# Procedure: 12% Triton X-100 was used as a total lysis control, and PBS was used as a negative control.
# Hemolysis was determined from hemoglobin release measured by UV absorption. Data are shown for free PmB and Erythro-PmBs at different PmB concentrations from 0 MIC to MIC. Values in the order of 0.03% were determined to be well below the benchmark hemolysis rate of 2% identified by the American Society of Clinical Pathology and were considered to be non-hemolytic. […] Hemolytic activity of the Erythro-PmBs was less than that of free PmB, less than 0.01%, and independent of PmB concentration (within experimental error).
# [2] = system: E. coli; assay: Bacterial growth curves (OD600, 24 h) for E. coli; type: cell-based
# Procedure: Bacterial growth curves for E. coli for different concentrations of (free) PmB (MIC, 0.5 MIC, 0.25 MIC, and 0 MIC) are shown in FIG. 12 a). […] Absorbance at 600 nm (OD 600) was measured during a period of 24 h. […] Bacteria treated with 0.25 MIC behaved similarly. A lag phase was observed before the first exponential cycle after the addition of an intermediate concentration of 0.5 MIC, where exponential growth was delayed by ˜9 h. […] Growth curves for E. coli treated with varying concentrations of Erythro-PmBs containing MIC, 0.5 MIC, 0.25 MIC, and 0 MIC of PmB are shown in FIG. 12 b).
# [3] = system: K. aerogenes; assay: Bacterial growth curves (OD600, 24 h) for K. aerogenes; type: cell-based, Klebsiella aerogenes
# Text: The lengths of the lag phase decreased monotonously with decreasing PmB concentration, similar to E. coli.
# Bacterial growth curves for K. aerogenes for different concentrations of (free) PmB (MIC, 0.5 MIC, 0.25 MIC, and 0 MIC) are shown in FIG. 13 a). […] Diauxic growth was less evident in the presence of free PmB: 0.25 MIC to MIC.
substance,measurement,setting,value
polymyxin B [free PmB],hemolysis,[1],~0.03%
same,delay of exponential growth (lag phase),[2]; 0.5 MIC,~9 h
same,minimum inhibitory concentration (MIC),[2]; OD600 over 24 h,0.63 µg/mL
same,growth at MIC,[2]; PmB content at MIC (0.63 μg/mL),No growth
same,lag phase,[3]; 0.25 MIC,6 h
same,lag phase,[3]; 0.5 MIC,9 h
same,minimum inhibitory concentration (MIC),[3]; OD600 over 24 h,1.5 µg/mL
